The values that follow come from US20240316038A1, “APOL1 INHIBITORS AND METHODS OF USE” (Maze Therapeutics, Inc., priority 2021, published 2024).

The target of assay [1] is T1, APOL1 G2 (Homo sapiens, UniProt O14791, DEL388-389).
T1 construct: expressed in transfected cells; host or cells: HEK293 T-REx clonal lines: HEK T-REx/GCaMP6f/APOL1 G2 K6.3 in A1, HEK293/T-REx APOL1 G2/clone #2 in A2
T1 sequence (O14791 with tags, fused parts or gaps DEL388-389): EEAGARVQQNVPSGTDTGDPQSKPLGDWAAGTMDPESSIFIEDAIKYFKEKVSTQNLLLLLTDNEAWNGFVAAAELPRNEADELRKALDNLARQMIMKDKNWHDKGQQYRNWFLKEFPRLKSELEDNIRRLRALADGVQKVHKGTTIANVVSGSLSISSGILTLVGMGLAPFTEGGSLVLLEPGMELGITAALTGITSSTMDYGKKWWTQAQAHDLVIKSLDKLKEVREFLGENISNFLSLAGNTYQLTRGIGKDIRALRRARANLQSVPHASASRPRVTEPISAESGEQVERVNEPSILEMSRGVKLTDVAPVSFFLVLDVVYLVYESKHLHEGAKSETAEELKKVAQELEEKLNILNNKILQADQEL
The assay is described as follows: APOL1 calcium transport inhibition assay (GCaMP6f calcium influx, FLIPR) in HEK T-REx/GCaMP6f/APOL1 G2 K6.3 cells. Type of assay: cell-based. The following applies: inhibition of APOL1-mediated calcium influx; geometric mean of at least 2 assay runs, † = single assay run (technical duplicate). In a few lines: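 HEK293 cells stably expressing GCaMP6f, APOL1 G2 induced 6 h with doxycycline (20 ng/mL added), then washed into Ca2+-free Tyrode's buffer pH 7.4. Compounds (8-point dose response) preincubated 10 min at room temperature, then Ca2+ injected to 5 mM final and influx read on FLIPR. AC50 reported as geometric mean of runs.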

For assay [2], the target named is T1, APOL1 G2. Kind of assay: Rescue of HEK293 cell death caused by overexpression of APOL1 (CellTiter-Glo luminescence), HEK293/T-REx APOL1 G2/clone #2. It is filed as cell-based. The following applies: reversal of cell death caused by overexpression of APOL1; geometric mean of at least 2 assay runs, † = single assay run (technical duplicate). In a few lines:
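Rescue EC50s come from four-parameter logistic fits, geometric mean of at least 2 runs on separate days, each in duplicate. Readout: CellTiter-Glo luminescence after 17 h at 37 °C of 5,000 HEK293/T-REx APOL1 G2 clone #2 cells/well, with 6 ng/mL doxycycline to induce APOL1 and 3-fold serial compound dilutions in 0.5% DMSO.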
Background: In ATP-based viability assays light output follows the ATP content of the culture.

SMILES strings stand for the structures.

By AC50 is commonly meant the concentration giving half of the maximal activity seen. As usually defined, the EC50 is the concentration at which the effect is half-maximal. As to `C[C@@H]1C[C@H](COc2ccc(S(C)(=O)=O)cc2)CN1CC(O)c1cccc(C#N)c1` (single isomer, unassigned) [Compound 117, 3-[(1S or 1R)-1-hydroxy-2-[(2R,4S)-4-[(4-methanesulfonylphenoxy)methyl]-2-methylpyrrolidin-1-yl]ethyl] benzonitrile], on APOL1 G2 [1], the AC50 came to 1080 nM. Moreover, the EC50 at APOL1 G2 [2] is 1240 nM.
As for `C[C@@H]1C[C@H](COc2ccc(S(C)(=O)=O)cc2)CN1CC(O)c1cc(C#N)cc(C#N)c1` (single isomer, unassigned) [Compound 118, 5-[(1R or 1S)-1-hydroxy-2-[(2R,4S)-4-[(4-methanesulfonylphenoxy)methyl]-2-methylpyrrolidin-1-ylethyl]benzene-1,3-dicarbonitrile], at APOL1 G2 [1], the AC50 turned out to be 936 nM. In addition, the EC50 at APOL1 G2 [2] was 4040 nM.
Turning to `C[C@@H]1C[C@H](COc2ccc(S(C)(=O)=O)cc2)CN1CC(O)c1cc(C#N)cc(C#N)c1` (single isomer, unassigned) [Compound 119, 5-[(1S or 1R)-1-hydroxy-2-[(2R,4S)-4-[(4-methanesulfonylphenoxy)methyl]-2-methylpyrrolidin-1-yl]ethyl]benzene-1,3-dicarbonitrile], the AC50 at APOL1 G2 [1] turned out to be 784 nM. Moreover, the EC50 on APOL1 G2 [2] was found to be 133 nM.
As for `C[C@@H]1CN(CC(O)c2cc(Cl)cc(C#N)c2)C[C@H]1COc1ccc(S(C)(=O)=O)cc1` (single isomer, unassigned) [Compound 121, 3-chloro-5-[(1S or 1R)-1-hydroxy-2-[(3S,4S)-3-[(4-methanesulfonylphenoxy)methyl]-4-methylpyrrolidin-1-ylethyl]benzonitrile], the AC50 on APOL1 G2 [1] was 270 nM. Also, at APOL1 G2 [2], the EC50 was found to be 100 nM.
For `C[C@@H]1CN(CC(O)c2cc(Cl)cc(C#N)c2)C[C@H]1COc1ccc(S(C)(=O)=O)cc1` (single isomer, unassigned) [Compound 122, 3-chloro-5-[(1R or 1S)-1-hydroxy-2-[(3S,4S)-3-[(4-methanesulfonylphenoxy)methyl]-4-methylpyrrolidin-1-yl]ethyl] benzonitrile] the same measures were 709 nM and 1340 nM.
Regarding `C[C@@H]1CN(CC(O)c2cccc(Cl)c2)C[C@H]1COc1ccc(S(C)(=O)=O)cc1` (single isomer, unassigned) [Compound 124, (1R or 1S)-1-(3-chlorophenyl)-2-[(3S,4S)-3-[(4-methanesulfonylphenoxy)methyl]-4-methylpyrrolidin-1-yl]ethan-1-ol], at APOL1 G2 [1], the half-maximal activity concentration (AC50) came out at 148 nM. Also, the EC50 at APOL1 G2 [2] turned out to be 242 nM.
As to `C[C@@H]1CN(CC(O)c2cccc(Cl)c2)C[C@H]1COc1ccc(S(C)(=O)=O)cc1` (single isomer, unassigned) [Compound 125, (1S or 1R)-1-(3-chlorophenyl)-2-[(3S,4S)-3-[(4-methanesulfonylphenoxy)methyl]-4-methylpyrrolidin-1-yl]ethan-1-ol], the concentration at half-maximal activity (AC50) on APOL1 G2 [1] came out at 2350 nM. Moreover, the EC50 at APOL1 G2 [2] came to 1550 nM.
In the case of `C[C@@H]1CN(CC(O)c2cccc(C#N)c2)C[C@H]1COc1ccc(S(C)(=O)=O)cc1` (single isomer, unassigned) [Compound 127, 3-[(1S or 1R)-1-hydroxy-2-[(3S,4S)-3-[(4-methanesulfonylphenoxy)methyl]-4-methylpyrrolidin-1-yl]ethyl] benzonitrile], the AC50 at APOL1 G2 [1] was 2480 nM. In addition, on APOL1 G2 [2], the EC50 is more than 10000 nM.
For `C[C@@H]1CN(CC(O)c2cccc(C#N)c2)C[C@H]1COc1ccc(S(C)(=O)=O)cc1` (single isomer, unassigned) [Compound 128, 3-[(1R or 1S)-1-hydroxy-2-[(35,4S)-3-[(4-methanesulfonylphenoxy)methyl]-4-methylpyrrolidin-1-ylethyl]benzonitrile] the same measures were 349 nM and 366 nM.
For `C[C@@H]1CN(CC(O)c2cc(C#N)cc(C#N)c2)C[C@H]1COc1ccc(S(C)(=O)=O)cc1` (single isomer, unassigned) [Compound 130, 5-[(1R or 1S)-1-hydroxy-2-[(3S,4S)-3-[(4-methanesulfonylphenoxy)methyl]-4-methylpyrrolidin-1-yl]ethyl]benzene-1,3-dicarbonitrile], at APOL1 G2 [1], the half-maximal activity concentration (AC50) came out at 2170 nM. Besides, at APOL1 G2 [2], the EC50 was more than 10000 nM.
The like results for `C[C@@H]1CN(CC(O)c2cc(C#N)cc(C#N)c2)C[C@H]1COc1ccc(S(C)(=O)=O)cc1` (single isomer, unassigned) [Compound 131, 5-[(1S or 1R)-1-hydroxy-2-[(35,4S)-3-[(4-methanesulfonylphenoxy)methyl]-4-methylpyrrolidin-1-yl]ethyl]benzene-1,3-dicarbonitrile] were, in that order, 394 nM and 460 nM.
Regarding `CC1CC(COc2ccc(S(C)(=O)=O)cc2)CN1CCc1cccc(C#N)c1` (single isomer, unassigned) [Compound 135, rac-cis or trans-3-{2-[4-[(4-methanesulfon-ylphenoxy)meth-yl]-2-methyl-pyrrolidin-1-yl]-ethyl}benzo-nitrile], the AC50 at APOL1 G2 [1] is more than 12500 nM. Further, the concentration giving a half-maximal response (EC50) at APOL1 G2 [2] came out at 5730 nM.
The like results for `CC1CC(COc2ccc(S(C)(=O)=O)cc2)CN1CCc1cccc(C#N)c1` (single isomer, unassigned) [Compound 136, rac-trans or cis-3-{2-[4-[(4-methanesulfon-ylphenoxy)meth-yl]-2-methyl-pyrrolidin-1-yl]-ethyl}benzo-nitrile] were, in that order, 207 nM and 110 nM.
Consider `CC1CC(COc2ccc(S(C)(=O)=O)cc2)CN1CCc1cccc(C#N)c1` (single isomer, unassigned) [Compound 137, 3-{2-[(2S,4R or 2R,4S or 2R,4R or 2S,4S)-4-[(4-methanesulfon-ylphenoxy)meth-yl]-2-methyl-pyrrolidin-1-yl]-ethyl}benzo-nitrile], for which the AC50 at APOL1 G2 [1] is more than 10000 nM. For the same compound, at APOL1 G2 [2], the half-maximal effective concentration (EC50) turned out to be 4620 nM.
Consider `CC1CC(COc2ccc(S(C)(=O)=O)cc2)CN1CCc1cccc(C#N)c1` (single isomer, unassigned) [Compound 138, 3-{2-[(2R,4S or 2S,4R or 2R,4R or 2S,4S)-4-[(4-methanesulfon-ylphenoxy)meth-yl]-2-methyl-pyrrolidin-1-yl]-ethyl}benzo-nitrile], for which, on APOL1 G2 [1], the AC50 was 2500 nM. Also, the EC50 on APOL1 G2 [2] was determined as 1970 nM.
For `CC1CC(COc2ccc(S(C)(=O)=O)cc2)CN1CCc1cccc(C#N)c1` (single isomer, unassigned) [Compound 139, 3-{2-[(2S,4R or 2R,4S or 2S,4S or 2R,4R)-4-[(4-methanesulfon-ylphenoxy)meth-yl]-2-methyl-pyrrolidin-1-yl]-ethyl}benzo-nitrile] the same measures were more than 10000 nM and 3230 nM.
For `CC1CC(COc2ccc(S(C)(=O)=O)cc2)CN1CCc1cccc(C#N)c1` (single isomer, unassigned) [Compound 140, 3-{2-[(2S,4R or 2R,4S or 2R,4R or 2S,4S)-4-[(4-methanesulfon-ylphenoxy)meth-yl]-2-methyl-pyrrolidin-1-yl]-ethyl}benzo-nitrile], the AC50 on APOL1 G2 [1] worked out at 107 nM. Also, the EC50 on APOL1 G2 [2] is 45.9 nM.
Turning to `CC(CN1C[C@@H](COc2ccc(S(C)(=O)=O)cc2)C[C@H]1C)c1cc(Cl)cc(C#N)c1` (single isomer, unassigned) [Compound 142, 3-chloro-5-[(2R or 2S)-1-[(2R, 4S)-4-[(4-meth-anesulfonyl-phenoxy)meth-yl]-2-methyl-pyrrolidin-1-yl]-propan-2-yl]-benzonitrile], the AC50 on APOL1 G2 [1] came out at 1230 nM. Besides, on APOL1 G2 [2], the EC50 worked out at 131 nM.
